According to paper PMC8162404, “Proteomimetic surface fragments distinguish targets by function” (Chemical Science, 2020):

Columns and labels:
CaM [1] = molecular target: T1, CaM (Bos taurus, UniProt P62157); experiment: Pull-down assay with immobilized protein and LSM libraries; assay type: binding, bovine; details: H14 library; 1:2 stoichiometry assumed; read-out: Surface mapping KD (apparent)
T1 construct: made in house; host or cells: E. coli BL21 (DE3)
Method in brief: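 CaM buffer was 20 mM HEPES pH 7.4, 150 mM NaCl, 5 mM CaCl2. LSM sublibrary members ([…]) incubated 30 min, RT, with equimolar His-tagged protein on Co-NTA resin. HPLC-MS measured unbound probes; bound fraction relative to resin-only background gave dissociation constants.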

Gal-1 [2] = molecular target: T2, Gal-1 (Homo sapiens, UniProt P09382); experiment: as above; assay type: binding; details: H14 library; 1:1 binding assumed; read-out: Surface mapping KD (apparent)
T2 construct: made in house; host or cells: E. coli BL21(DE3)
Method in brief: (§1)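 Buffers were HEPES pH 7.4 with 150 mM NaCl, plus 1 mM TCEP and 1 mM CaCl2 (50 mM HEPES) for S100A4 and S100B, 1 mM TCEP for Gal-1, and no additive for RecQ-WH. Immobilized protein at 64 µM was equilibrated 30 min with the LSM sublibrary, and unbound probes were measured by LC-MS.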

S100A4 = molecular target: T3, S100A4 (Homo sapiens, UniProt P26447); experiment: as above; assay type: binding; details: for Kd: H14 library, 1:1 binding assumed, read-out: Surface mapping KD (apparent)
T3 construct: made in house; host or cells: Escherichia coli BL21(DE3)
Method in brief: as §1

S100B [3] = molecular target: T4, S100B (Homo sapiens, UniProt P04271); experiment: as above; assay type: binding; details: for Kd: H14 library, 1:1 binding assumed, read-out: Surface mapping KD (apparent)
T4 construct: made in house; host or cells: Escherichia coli BL21(DE3)
T4 sequence (P04271 1-92): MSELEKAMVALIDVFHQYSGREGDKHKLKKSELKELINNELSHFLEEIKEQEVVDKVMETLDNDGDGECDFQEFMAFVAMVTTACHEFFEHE
Method in brief: as §1

RecQ-WH [4] = molecular target: T5, RecQ-WH (Escherichia coli, UniProt P15043); experiment: as above; design: species or system E. coli; details: H14 library; 1:1 binding assumed; read-out: Surface mapping KD (apparent)
T5 construct: coding for residues 408– 523 of E. coli RecQ; made in house; host or cells: E. coli BL21(DE3)
Method in brief: as §1

CaM [5] = molecular target: T1, CaM; experiment: Competition pull-down with native ligand TRPV1-Ct15; assay type: binding, bovine; details: H14 library; competitor peptide 200 µM; read-out: Surface mapping KD (apparent), competition
S100B [6] = molecular target: T4, S100B; experiment: Competition pull-down with native ligand RSK1 (689–735); assay type: binding; details: H14 library; competitor peptide 200 µM; read-out: Surface mapping KD (apparent), competition
RecQ-WH [7] = molecular target: T5, RecQ-WH; experiment: Competition pull-down with native ligand SSB-Ct8; assay type: binding, E. coli; details: H14 library; competitor peptide 200 µM; read-out: Surface mapping KD (apparent), competition
Gal-1 [8] = molecular target: T2, Gal-1; experiment: Competition pull-down with lactose; assay type: binding; details: H14 library; lactose 10 mM; read-out: Surface mapping KD (apparent), competition
Method in brief: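 His6-tagged proteins immobilized on Co-NTA resin at 64 µM final with 64-member LSM foldamer sublibraries (1 M each, as printed) in pH 7.4 HEPES/NaCl buffers (Ca2+/TCEP per target), 30 min RT; competitor peptides 200 µM final, lactose 10 mM for Gal-1. Bound fractions from LC-MS loss vs protein-free resin; KD assuming 1:1 binding.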

[9] = H14 probes selected for validation

T2 sequence (P09382 whole entry): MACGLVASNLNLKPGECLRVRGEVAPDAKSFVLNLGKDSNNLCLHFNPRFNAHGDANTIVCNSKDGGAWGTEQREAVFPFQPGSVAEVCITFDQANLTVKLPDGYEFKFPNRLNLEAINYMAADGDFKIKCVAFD
T5 sequence (P15043 408-523): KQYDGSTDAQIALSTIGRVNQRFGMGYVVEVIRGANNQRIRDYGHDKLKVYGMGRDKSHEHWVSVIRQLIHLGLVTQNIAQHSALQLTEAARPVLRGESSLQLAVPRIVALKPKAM
T3 sequence (P26447 whole entry): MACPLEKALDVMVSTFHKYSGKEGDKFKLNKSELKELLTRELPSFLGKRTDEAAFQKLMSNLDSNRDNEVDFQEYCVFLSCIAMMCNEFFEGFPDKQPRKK

Which Kd (CaM [1]) does the source give for `NC(=O)[C@H]1CCCC[C@@H]1NC(=O)C[C@H](Cc1ccccc1)NC(=O)[C@H]1CCCC[C@@H]1NC(=O)[C@H]1CCCC[C@@H]1NC(=O)C[C@H](Cc1ccccc1)NC(=O)[C@H]1CCCC[C@@H]1N` [H14 FF] here?
The Kd was 1.2 µM.

And the Kd (Gal-1 [2])?
The Kd was 75 µM.

And the Kd (S100A4)?
Its Kd is 12 µM.

And the Kd (S100B [3])?
The Kd was 16 µM.

And the Kd (RecQ-WH [4])?
Its Kd is 134 µM.

And the Kd (CaM [5])?
Its Kd is 47 µM.

And the Kd (S100B [6])?
The Kd was 180 µM.

What about the Kd (RecQ-WH [7]) of the same compound?
The Kd was 312 µM.

And the Kd (Gal-1 [8])?
The Kd was 108 µM.

`CSCC[C@@H](CC(=O)N[C@H]1CCCC[C@@H]1C(N)=O)NC(=O)[C@H]1CCCC[C@@H]1NC(=O)[C@H]1CCCC[C@@H]1NC(=O)C[C@H](Cc1ccccc1)NC(=O)[C@H]1CCCC[C@@H]1N` [H14 FM] was tested. Which Kd (CaM [1]) did it give?
The Kd was 2 µM.

What about the Kd (Gal-1 [2]) of the same compound?
Its Kd is 284 µM.

And the Kd (S100A4)?
The Kd was 22 µM.

And the Kd (S100B [3])?
Its Kd is 19 µM.

What about the Kd (RecQ-WH [4]) of the same compound?
The Kd was 225 µM.

What about the Kd (CaM [5]) of the same compound?
The Kd was 109 µM.

And the Kd (S100B [6])?
Its Kd is 352 µM.

And the Kd (RecQ-WH [7])?
Its Kd is 454 µM.

What about the Kd (Gal-1 [8]) of the same compound?
Its Kd is 250 µM.

With `NC(=O)CC[C@@H](CC(=O)N[C@H]1CCCC[C@@H]1C(=O)N[C@H]1CCCC[C@@H]1C(=O)N[C@H](CC(=O)N[C@H]1CCCC[C@@H]1C(N)=O)Cc1c[nH]c2ccccc12)NC(=O)[C@H]1CCCC[C@@H]1N` [H14 QW] as the compound, how does the Kd (CaM [1]) read?
The Kd was 27 µM.

What about the Kd (Gal-1 [2]) of the same compound?
The Kd was 169 µM.

And the Kd (S100B [3])?
Its Kd is 79 µM.

And the Kd (RecQ-WH [4])?
Its Kd is 143 µM.

What about the Kd (CaM [5]) of the same compound?
Its Kd is 168 µM.

What about the Kd (S100B [6]) of the same compound?
The Kd was 473 µM.

What about the Kd (RecQ-WH [7]) of the same compound?
The Kd was 341 µM.

What about the Kd (Gal-1 [8]) of the same compound?
Its Kd is 183 µM.

What does the source list for `CC(C)[C@@H](CC(=O)N[C@H]1CCCC[C@@H]1C(=O)N[C@H]1CCCC[C@@H]1C(=O)N[C@H](CC(=O)N[C@H]1CCCC[C@@H]1C(N)=O)Cc1c[nH]c2ccccc12)NC(=O)[C@H]1CCCC[C@@H]1N` [H14 VW]?
Kd (CaM [1]): 13 µM; Kd (Gal-1 [2]): 98 µM; Kd (S100A4): 11 µM; Kd (S100B [3]): 16 µM; Kd (RecQ-WH [4]): 221 µM; Kd (CaM [5]): 153 µM; Kd (S100B [6]): 60 µM; Kd (RecQ-WH [7]): 452 µM; Kd (Gal-1 [8]): 211 µM

How did the Kd (CaM [1]) turn out when `NC(=O)[C@H]1CCCC[C@@H]1NC(=O)C[C@H](Cc1ccccc1)NC(=O)[C@H]1CCCC[C@@H]1NC(=O)[C@H]1CCCC[C@@H]1NC(=O)C[C@H](Cc1c[nH]c2ccccc12)NC(=O)[C@H]1CCCC[C@@H]1N` [H14 WF] was run?
The Kd was 4 µM.

And the Kd (Gal-1 [2])?
The Kd was 38 µM.

What about the Kd (S100A4) of the same compound?
The Kd was 10 µM.

What about the Kd (S100B [3]) of the same compound?
Its Kd is 14 µM.

And the Kd (RecQ-WH [4])?
Its Kd is 62 µM.

And the Kd (CaM [5])?
The Kd was 29 µM.

And the Kd (S100B [6])?
The Kd was 177 µM.

And the Kd (RecQ-WH [7])?
The Kd was 106 µM.

And the Kd (Gal-1 [8])?
The Kd was 59 µM.

How did the Kd (CaM [1]) turn out when `CSCC[C@@H](CC(=O)N[C@H]1CCCC[C@@H]1C(N)=O)NC(=O)[C@H]1CCCC[C@@H]1NC(=O)[C@H]1CCCC[C@@H]1NC(=O)C[C@H](Cc1c[nH]c2ccccc12)NC(=O)[C@H]1CCCC[C@@H]1N` [H14 WM] was run?
The Kd was 1.4 µM.

What about the Kd (Gal-1 [2]) of the same compound?
Its Kd is 145 µM.

And the Kd (S100A4)?
Its Kd is 43 µM.

What about the Kd (S100B [3]) of the same compound?
Its Kd is 45 µM.

And the Kd (RecQ-WH [4])?
The Kd was 81 µM.

And the Kd (CaM [5])?
Its Kd is 251 µM.

And the Kd (S100B [6])?
Its Kd is 125 µM.

What about the Kd (RecQ-WH [7]) of the same compound?
The Kd was 188 µM.

What about the Kd (Gal-1 [8]) of the same compound?
The Kd was 305 µM.

`NC(=O)[C@H]1CCCC[C@@H]1NC(=O)C[C@H](CO)NC(=O)[C@H]1CCCC[C@@H]1NC(=O)[C@H]1CCCC[C@@H]1NC(=O)C[C@H](Cc1c[nH]c2ccccc12)NC(=O)[C@H]1CCCC[C@@H]1N` [H14 WS] was tested. Which Kd (CaM [1]) did it give?
Its Kd is 9 µM.

What about the Kd (Gal-1 [2]) of the same compound?
Its Kd is 467 µM.

What about the Kd (S100A4) of the same compound?
The Kd was 176 µM.

What about the Kd (S100B [3]) of the same compound?
The Kd was 138 µM.

And the Kd (RecQ-WH [4])?
The Kd was 209 µM.

What about the Kd (CaM [5]) of the same compound?
The Kd was 307 µM.

What about the Kd (S100B [6]) of the same compound?
Its Kd is 434 µM.

And the Kd (RecQ-WH [7])?
Its Kd is 352 µM.

Which results are given for `CC(C)[C@@H](CC(=O)N[C@H]1CCCC[C@@H]1C(N)=O)NC(=O)[C@H]1CCCC[C@@H]1NC(=O)[C@H]1CCCC[C@@H]1NC(=O)C[C@H](Cc1c[nH]c2ccccc12)NC(=O)[C@H]1CCCC[C@@H]1N` [H14 WV]?
Kd (CaM [1]): 2 µM; Kd (Gal-1 [2]): 143 µM; Kd (S100A4): 13 µM; Kd (S100B [3]): 16 µM; Kd (RecQ-WH [4]): 102 µM; Kd (CaM [5]): 85 µM; Kd (S100B [6]): 116 µM; Kd (RecQ-WH [7]): 268 µM; Kd (Gal-1 [8]): 224 µM

Which results are given for `NC(=O)[C@H]1CCCC[C@@H]1NC(=O)C[C@H](Cc1ccccc1)NC(=O)[C@H]1CCCC[C@@H]1NC(=O)[C@H]1CCCC[C@@H]1NC(=O)C[C@H](Cc1ccc(O)cc1)NC(=O)[C@H]1CCCC[C@@H]1N` [H14 YF]?
Kd (CaM [1]): 2 µM; Kd (Gal-1 [2]): 162 µM; Kd (S100A4): 25 µM; Affinity class of probe (high, medium, low) in pull-down (S100A4; [9]): medium; Kd (S100B [3]): 34 µM; Affinity class of probe (high, medium, low) in pull-down (S100B [3]; [9]): medium; Kd (RecQ-WH [4]): 84 µM; Kd (CaM [5]): 119 µM; Kd (S100B [6]): 149 µM; Kd (RecQ-WH [7]): 400 µM; Kd (Gal-1 [8]): 234 µM
